ChEMBL document CHEMBL1124038, “Dehydro keto methylene and keto methylene analogues of substance P. Synthesis and biological activity” (J Med Chem, 1988)
Numbered stars: 1 amine (or outer) side, 2 acyl side, 3 side chain; on linkers, the order of the positions; unused ones are H or OH. Square brackets hold non-standard residues; d marks the D form. Peptide text beside a SMILES is read from it. X1 = CC(C)C[C@H](CC(=O)CN[*:1])C(=O)[*:2]; pGlu = O=C1CC[C@@H](C(=O)O)N1

organism: Rattus norvegicus; experiment: Inhibition of the degradation of [125IBH]-SP6-11 in rat hypothalamus preparations; format: functional

SMILES	IC50 [µM]
O=C1CC[C@H](C(=O)N[C@@H](Cc2ccccc2)C(=O)C/C(=C/c2ccccc2)C(=O)O)N1	> 200
CSCC[C@H](NC(=O)[C@H](CC(C)C)NC(=O)CNC(=O)/C(=C\c1ccccc1)CC(=O)[C@H](Cc1ccccc1)NC(=O)[C@H]1CCC(=O)N1)C(N)=O	1.8
COC(=O)CCC(=O)[C@@H](N)Cc1ccccc1	> 200
CCOC(=O)/C(=C\c1ccccc1)CC(=O)[C@@H](N)Cc1ccccc1	> 200
CSCC[C@H](NC(=O)[C@@H](CC(=O)CNC(=O)[C@H](Cc1ccccc1)NC(=O)[C@H](Cc1ccccc1)NC(=O)[C@@H]1CCC(=O)N1)CC(C)C)C(N)=O ([pGlu]FF[X1]M-NH2)	50

The next lines start with the values.

IC50 [µM]	SMILES
> 200	CCOC(=O)/C(=C\c1ccccc1)CC(=O)[C@H](Cc1ccccc1)NC(=O)c1ccccc1
> 200	CCOC(=O)/C(=C\c1ccccc1)CC(=O)[C@H](Cc1ccccc1)NC(=O)[C@H]1CCC(=O)N1
> 200	COC(=O)CCC(=O)[C@H](Cc1ccccc1)NC(=O)[C@H](Cc1ccccc1)NC(=O)[C@H]1CCC(=O)N1
30	CSCC[C@H](NC(=O)[C@H](CC(C)C)NC(=O)CNC(=O)[C@@H](CC(=O)[C@H](Cc1ccccc1)NC(=O)[C@H]1CCC(=O)N1)Cc1ccccc1)C(N)=O
